# Laboratory results taken from ChEMBL document CHEMBL4334480, “Anti-inflammatory Ellagitannins from Cleidion brevipetiolatum for the Treatment of Rheumatoid Arthritis” (J Nat Prod, 2019).
# Calls of active or inactive are those of the source. The rule behind the calls is not given here.
# How the values were obtained:
# RAW264.7 [1] = assay: Anti-inflammatory activity in mouse RAW264.7 cells assessed as inhibition of LPS-induced nitric oxide production preincubated for 2 hrs followed by LPS stimulation and measured after 24 hrs by Griess assay; assay type: functional, cell-based
# RAW264.7 [2] = assay: Cytotoxicity against mouse RAW264.7 cells after 24 hrs by MTT assay; assay type: cell-based; details: raw264.7, 24 h
# RAW264.7 [3] = assay: Antiinflammatory activity against mouse RAW264.7 cells assessed as reduction in LPS-induced iNOS protein expression compound preincubated for 2 hrs followed by LPS stimulation after 22 hrs by Western blot analysis; assay type: functional, cell-based
# RAW264.7 [4] = assay: Antiinflammatory activity against mouse RAW264.7 cells assessed as reduction in LPS-induced IL-1beta mRNA expression compound preincubated for 2 hrs followed by LPS stimulation after 22 hrs by RT-PCR analysis; assay type: functional, cell-based
# RAW264.7 [5] = assay: Antiinflammatory activity against mouse RAW264.7 cells assessed as reduction in LPS-induced Cox2 protein expression compound preincubated for 2 hrs followed by LPS stimulation after 22 hrs by Western blot analysis; assay type: functional, cell-based
# [6] = molecular target: MAP kinase p38 (Mus musculus) (UniProt P47811+O08911+Q9WUI1+Q9Z1B7); assay: Inhibition of LPS-induced P38 phosphorylation in mouse RAW264.7 cells at 5 to 50 uM preincubated for 2 hrs followed by LPS-stimulation after 22 hrs by Western blot analysis; assay type: cell-based
# Mus musculus [7] = assay: Antiarthritic activity in collagen-induced rheumatoid arthritis DBA/1J mouse model assessed as reduction in forelimb swelling at 50 mg/kg, po; assay type: functional, organism-based
# [8] = Toxicity in DBA/1J mouse assessed as effect on behavioral changes at 50 mg/kg, po; assay type: organism-based; details: in vivo
# Mus musculus [9] = assay: Antiinflammatory activity against carrageenan-induced paw oedema in ICR mouse assessed as inhibition of paw edema at 50 mg/kg, po administered 30 mins prior to carrageenan challenge after 5 hrs post carrageenan challenge; assay type: functional, organism-based
# [10] = molecular target: T1, NF-kappa-B inhibitor alpha (Mus musculus) (UniProt Q9Z1E3); assay: Inhibition of LPS-induced IKBalpha phosphorylation mouse RAW264.7 cells at 5 to 50 uM preincubated for 2 hrs followed by LPS-stimulation after 22 hrs by Western blot analysis; assay type: cell-based
# T1 sequence (whole entry): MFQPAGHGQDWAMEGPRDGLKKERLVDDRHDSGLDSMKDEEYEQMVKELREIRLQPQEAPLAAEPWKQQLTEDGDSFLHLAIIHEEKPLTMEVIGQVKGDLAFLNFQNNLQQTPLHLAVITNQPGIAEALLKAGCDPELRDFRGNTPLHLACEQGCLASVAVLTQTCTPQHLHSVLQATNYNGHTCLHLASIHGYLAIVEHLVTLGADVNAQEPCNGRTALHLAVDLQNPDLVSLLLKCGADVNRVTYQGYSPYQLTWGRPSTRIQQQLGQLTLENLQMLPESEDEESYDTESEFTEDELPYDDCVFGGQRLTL
# Mus musculus [11] = assay: Antiarthritic activity in collagen-induced rheumatoid arthritis DBA/1J mouse model assessed as reduction in hindlimb swelling at 50 mg/kg, po; assay type: functional, organism-based
# RAW264.7 [12] = assay: Antiinflammatory activity against mouse RAW264.7 cells assessed as effect on LPS-induced TNF-alpha mRNA expression at 5 to 50 uM preincubated for 2 hrs followed by LPS stimulation after 22 hrs by RT-PCR analysis; assay type: functional, cell-based
# [13] = Toxicity in DBA/1J mouse assessed as effect on body weight at 50 mg/kg, po; assay type: organism-based; details: in vivo
# RAW264.7 [14] = assay: Inhibition of LPS-induced ERK phosphorylation in mouse RAW264.7 cells at 5 to 50 uM preincubated for 2 hrs followed by LPS-stimulation after 22 hrs by Western blot analysis; assay type: cell-based
# RAW264.7 [15] = assay: Antiinflammatory activity against mouse RAW264.7 cells assessed as reduction in LPS-induced Cox2 mRNA expression compound preincubated for 2 hrs followed by LPS stimulation after 22 hrs by RT-PCR analysis; assay type: functional, cell-based
# Mus musculus [16] = assay: Antiinflammatory activity against carrageenan-induced paw oedema in ICR mouse assessed as reduction in NO level in serum at 50 mg/kg, po administered 30 mins prior to carrageenan challenge after 5 hrs post carrageenan; assay type: functional, organism-based
# RAW264.7 [17] = assay: Inhibition of LPS-induced JNK phosphorylation in mouse RAW264.7 cells at 5 to 50 uM preincubated for 2 hrs followed by LPS-stimulation after 22 hrs by Western blot analysis; assay type: cell-based
# [18] = molecular target: Transcription factor p65 (Mus musculus) (UniProt Q04207); assay: Inhibition of LPS-induced NFkappaB p65 nuclear translocation in mouse RAW264.7 cells at 5 to 50 uM preincubated for 2 hrs followed by LPS-stimulation after 22 hrs by Western blot analysis; assay type: cell-based
# Sequence of Transcription factor p65 (Mus musculus) (Q04207 whole entry): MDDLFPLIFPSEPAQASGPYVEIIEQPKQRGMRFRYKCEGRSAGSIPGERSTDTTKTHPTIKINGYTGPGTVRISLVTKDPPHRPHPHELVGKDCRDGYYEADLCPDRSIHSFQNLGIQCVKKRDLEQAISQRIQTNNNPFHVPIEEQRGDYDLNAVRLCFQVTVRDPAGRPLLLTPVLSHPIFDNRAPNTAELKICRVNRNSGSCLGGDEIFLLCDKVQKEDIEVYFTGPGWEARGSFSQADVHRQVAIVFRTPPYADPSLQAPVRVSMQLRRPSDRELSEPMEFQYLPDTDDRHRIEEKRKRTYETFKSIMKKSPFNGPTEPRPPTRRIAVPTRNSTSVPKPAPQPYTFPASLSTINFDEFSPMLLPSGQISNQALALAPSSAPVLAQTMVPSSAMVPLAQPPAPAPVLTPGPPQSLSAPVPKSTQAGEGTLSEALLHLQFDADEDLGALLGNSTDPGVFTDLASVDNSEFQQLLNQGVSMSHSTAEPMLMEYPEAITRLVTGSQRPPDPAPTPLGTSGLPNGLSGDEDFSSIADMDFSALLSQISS
# Mus musculus [19] = assay: Antiinflammatory activity against carrageenan-induced paw edema in ICR mouse assessed as inhibition of paw edema at 50 mg/kg, po administered 30 mins prior to carrageenan challenge measured at 2 hrs post carrageenan challenge relative to control; assay type: functional
# Mus musculus [20] = assay: Antiarthritic activity in collagen-induced rheumatoid arthritis DBA/1J mouse model at 50 mg/kg, po after 22 days; assay type: functional, organism-based
# RAW264.7 [21] = assay: Antiinflammatory activity against mouse RAW264.7 cells assessed as reduction in LPS-induced iNOS mRNA expression compound preincubated for 2 hrs followed by LPS stimulation after 22 hrs by RT-PCR analysis; assay type: functional, cell-based
# Mus musculus [22] = assay: Antiinflammatory activity against carrageenan-induced paw oedema in ICR mouse assessed as inhibition of paw edema at 20 mg/kg, po administered 30 mins prior to carrageenan challenge after 5 hrs post carrageenan challenge; assay type: functional, organism-based
# Mus musculus [23] = assay: Antiinflammatory activity against carrageenan-induced paw oedema in ICR mouse assessed as reduction in NO level in serum at 20 mg/kg, po administered 30 mins prior to carrageenan challenge after 5 hrs post carrageenan; assay type: functional, organism-based
# Mus musculus [24] = assay: Antiinflammatory activity against carrageenan-induced paw oedema in ICR mouse assessed as inhibition of paw edema at 20 mg/kg, po administered 30 mins prior to carrageenan challenge measured at 2 hrs post carrageenan challenge relative to control; assay type: functional
IC50 (RAW264.7 [1]) [µM],SMILES,Activity (RAW264.7 [2]),other results
8.2,C/C=C/c1ccc(O[C@@H]2O[C@H](CO)[C@H]3OC(=O)c4cc(O)c(O)c(O)c4-c4c(cc(O)c(O)c4O)C(=O)O[C@@H]3[C@H]2O)cc1,Non-Toxic,–
> 50,C/C=C/c1ccc(O[C@@H]2O[C@H](CO)[C@@H](O)[C@H](O)[C@H]2O)cc1,Non-Toxic,–
4.3,C=CCc1ccc(O[C@@H]2O[C@H](CO)[C@H]3OC(=O)c4cc(O)c(O)c(O)c4-c4c(cc(O)c(O)c4O)C(=O)O[C@@H]3[C@H]2O)cc1,Non-Toxic,–
4.1,C=CCc1ccc(O[C@@H]2O[C@H](CO)[C@H]3OC(=O)c4cc(O)c(O)c(O)c4-c4c(cc(O)c(O)c4O)C(=O)O[C@@H]3[C@H]2O)c(O)c1,Non-Toxic,–
1.9,C=CCc1ccc(O[C@@H]2O[C@H](CO[C@@H]3O[C@@H](C)[C@@H]4OC(=O)c5cc(O)c(O)c(O)c5-c5c(cc(O)c(O)c5O)C(=O)O[C@H]4[C@H]3O)[C@H]3OC(=O)c4cc(O)c(O)c(O)c4-c4c(cc(O)c(O)c4O)C(=O)O[C@@H]3[C@H]2O)cc1,Non-Toxic,Activity (RAW264.7 [3]): Dose-dependent effect; Activity (RAW264.7 [4]): Dose-dependent effect; Activity (RAW264.7 [5]): Dose-dependent effect; inhibition [6]: inactive; Activity (Mus musculus [7]): Active; Activity [8]: Non-Toxic; inhibition (Mus musculus [9]): Active; inhibition [10]: Active; Activity (Mus musculus [11]): Active; Activity (RAW264.7 [12]): inactive; Activity [13]: Non-Toxic; inhibition (RAW264.7 [14]): inactive; Activity (RAW264.7 [15]): Dose-dependent effect; Activity (Mus musculus [16]): Active; inhibition (RAW264.7 [17]): inactive; inhibition [18]: Active; inhibition in vivo at 50 mg/kg (Mus musculus [19]): 26.9%; Activity (Mus musculus [20]): Active; Activity (RAW264.7 [21]): Dose-dependent effect
–,COc1ccc2c(c1)c(CC(=O)O)c(C)n2C(=O)c1ccc(Cl)cc1 [INDOMETHACIN],–,inhibition (Mus musculus [22]): Active; Activity (Mus musculus [23]): Active; inhibition in vivo at 20 mg/kg (Mus musculus [24]): 26.5%
2.1,C/C=C/c1ccc(O[C@@H]2O[C@H](CO)[C@H]3OC(=O)c4cc(O)c(O)c(O)c4-c4c(cc(O)c(O)c4O)C(=O)O[C@@H]3[C@H]2O)c(O)c1,Non-Toxic,–
3.9,C=CCc1ccc(O[C@@H]2O[C@H](COC(=O)c3cc(O)c(O)c(O)c3)[C@H]3OC(=O)c4cc(O)c(O)c(O)c4-c4c(cc(O)c(O)c4O)C(=O)O[C@@H]3[C@H]2O)c(O)c1,Non-Toxic,–
29.2,C/C=C/c1ccc(O[C@@H]2O[C@H](CO)[C@@H](O)[C@H](O)[C@H]2O)c(O)c1,Non-Toxic,–
> 50,C=CCc1ccc(O[C@@H]2O[C@H](CO)[C@@H](O)[C@H](O)[C@H]2O)cc1,Non-Toxic,–
3.6,C/C=C/c1ccc(O[C@@H]2O[C@H](CO[C@@H]3O[C@@H](C)[C@@H]4OC(=O)c5cc(O)c(O)c(O)c5-c5c(cc(O)c(O)c5O)C(=O)O[C@H]4[C@H]3O)[C@H]3OC(=O)c4cc(O)c(O)c(O)c4-c4c(cc(O)c(O)c4O)C(=O)O[C@@H]3[C@H]2O)cc1,Non-Toxic,–
> 50,O=c1oc2c(O)c(O)cc3c(=O)oc4c(O)c(O)cc1c4c23 [ELLAGIC ACID],Non-Toxic,–
> 50,C=CCc1ccc(O[C@@H]2O[C@H](CO)[C@@H](O)[C@H](O)[C@H]2O)c(O)c1,Non-Toxic,–

SMILES,IC50 (RAW264.7 [1]) [µM],Activity (RAW264.7 [2]),other results
O=C(O)c1cc(O)c(O)c(O)c1 [GALLIC ACID],> 50,Non-Toxic,–
O=c1cc(-c2ccc(O)c(O)c2)oc2cc(O)cc(O)c12 [LUTEOLIN],5.8,Non-Toxic,–
